How the values were obtained:
[1] = tested on: HIV-1 YU-2 luciferase reporter virus in U87-CD4-CCR5 cells; assay: Luciferase Replication assay (HIV replication); format: cell-based; details: Human immunodeficiency virus 1, U87/CD4/CCR5, 72 h, read-out: HIV Replication IC50 luciferase (nM, Yu-2)
Procedure: Luciferase Replication Assay:
Plasmids encoding the full length genome of HIV-1 pNL-4-Luc with the gp 120 V-3 loop replaced by the Bgl II fragment of HIV-1 ADA, YU-2 or HxB (ADA-Luc-FL, YU-2-Luc-FL and HxB-Luc-FL) were obtained from Dr. Susan Pontow (Washington University, St. Louis Mo.). Replication-competent luciferase reporter virus stocks were generated by transfection of plasmids into 293T cells using Superfect (Qiagen) or Mirus transfection reagents. Viral stocks were collected 48 hours following transfection and titered for luciferase production on U-87-CCR5 or CXCR4 cells. U87-CD4-CCR5 cells ([…]) were plated in 96-well cell culture plates and incubated overnight. Media was removed and replaced with 50 μl of fresh culture media (DMEM, 10% FCS) and 50 μl of compound diluted in culture medium. Cells were incubated with compound at 37° C. for 1 hour. The resultant supernatant was removed and replaced with 20 μl of media containing compound and infected with an equal volume of diluted or undiluted virus stock at 37° C. for 3-4 hours. The cells were washed once with DMEM, and 200 μl of media containing compound was added. The cultures were incubated for 3 days, the cells lysed in luciferase lysis buffer (Promega, Madison, Wis.) and transferred to Immulon plates (Dynex Technologies, Chantilly Va.). An equal volume of luciferase substrate (Promega, Madison Wis.) was added to lysates and the plates read immediately in a Wallac Luminometer. Fifty and ninety percent inhibitory concentrations were determined using GraphPad PRISM software.

| Compound | IC50 [1] | melting point |
| --- | --- | --- |
| COC[C@@H](c1ccc(C(F)(F)F)cc1)N1CCN(C2(C)CCN(C(=O)c3c(C)nn(OCc4ccccc4)c3C)CC2)C[C@@H]1C | 0.4 nM | – |
| CC[C@@H](c1ccc(C(F)(F)F)cc1)N1CCN(C2(C)CCN(C(=O)c3c(C)nn(O)c3C)CC2)C[C@@H]1C | > 100 nM | – |
| Cc1nn(O)c(C)c1C(=O)N1CCC(C)(N2CCN([C@@H](c3cccc(F)c3)C3CCN(S(=O)(=O)C4CC4)CC3)[C@@H](C)C2)CC1 | 43 nM | 214 to 215 °C |
| COC[C@@H](c1ccc(C(F)(F)F)cc1)N1CCN(C2(C)CCN(C(=O)c3c(C)nn(O)c3C)CC2)C[C@@H]1C | 8 nM | – |
